Experimental data: PubChem BioAssay (NCI)
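The compound was tested at five concentrations on cells cultured in 96-well plates, with a 48-hour exposure period. GI50 is the concentration that inhibits growth by half. At the TGI there is no net growth.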

What was measured:
Assay in all cases: NCI anticancer screen, dose series, 48 h
[1] = tested on: SR leukemia
[2] = tested on: OVCAR-8 ovarian
[3] = tested on: DU-145 prostate
[4] = tested on: MDA-MB-231 breast
[5] = tested on: SW-620 colon
[6] = tested on: OVCAR-4 ovarian
[7] = tested on: HOP-92 NSCLC
[8] = tested on: HOP-62 NSCLC
[9] = tested on: HS 578T breast
[10] = tested on: NCI/ADR-RES ovarian
[11] = tested on: CCRF-CEM leukemia
[12] = tested on: ACHN renal
[13] = tested on: CAKI-1 renal
[14] = tested on: K-562 leukemia
[15] = tested on: SNB-19 CNS
[16] = tested on: UO-31 renal
[17] = tested on: SN12C renal
[18] = tested on: SF-539 CNS
[19] = tested on: HCT-116 colon
[20] = tested on: SF-295 CNS
[21] = tested on: SK-OV-3 ovarian
[22] = tested on: SNB-75 CNS
[23] = tested on: EKVX NSCLC
[24] = tested on: NCI-H522 lung
[25] = tested on: MDA-MB-435
[26] = tested on: MCF7 breast
[27] = tested on: A498 renal
[28] = tested on: HT29 colon
[29] = tested on: SK-MEL-2 melanoma
[30] = tested on: MALME-3M melanoma
[31] = tested on: SK-MEL-28 melanoma
[32] = tested on: PC-3 prostate
[33] = tested on: OVCAR-3 ovarian
[34] = tested on: KM12 colon
[35] = tested on: OVCAR-5 ovarian
[36] = tested on: T-47D breast
[37] = tested on: TK-10 renal
[38] = tested on: HCT-15 colon
[39] = tested on: HL-60(TB) leukemia
[40] = tested on: IGROV1 ovarian
[41] = tested on: UACC-257 melanoma
[42] = tested on: A549 NSCLC
[43] = tested on: RPMI-8226 leukemia
[44] = tested on: LOX IMVI melanoma
[45] = tested on: MOLT-4 leukemia
[46] = tested on: COLO 205 colon
[47] = tested on: SK-MEL-5 melanoma
[48] = tested on: NCI-H23 lung
[49] = tested on: HCC-2998 colon
[50] = tested on: M14 melanoma
[51] = tested on: U251 CNS
[52] = tested on: NCI-H226 lung
[53] = tested on: UACC-62 melanoma
[54] = tested on: RXF 393 renal
[55] = tested on: 786-0 renal
[56] = tested on: BT-549 breast
[57] = tested on: SF-268 CNS
[58] = tested on: NCI-H460 lung

N#CC(c1ccc(O)cc1)N1CCN(C(C#N)c2ccc(O)cc2)CC1 (stereo unspecified)
TGI [1]: > 100 µM
TGI [2]: > 53.1 µM
TGI [3]: > 91.5 µM
TGI [4]: 55.8 µM
TGI [5]: > 100 µM
TGI [6]: > 100 µM
TGI [7]: 60.1 µM
TGI [8]: 57.1 µM
TGI [9]: > 100 µM
TGI [10]: > 100 µM
TGI [11]: > 100 µM
TGI [12]: > 100 µM
TGI [13]: > 100 µM
TGI [14]: > 100 µM
TGI [15]: 75.7 µM
TGI [16]: > 100 µM
TGI [17]: > 100 µM
TGI [18]: > 100 µM
TGI [19]: > 100 µM
TGI [20]: > 100 µM
TGI [21]: > 100 µM
TGI [22]: 48.1 µM
TGI [23]: > 76.1 µM
TGI [24]: > 100 µM
TGI [25]: > 100 µM
TGI [26]: > 100 µM
TGI [27]: > 100 µM
TGI [28]: > 100 µM
TGI [29]: > 100 µM
TGI [30]: > 100 µM
TGI [31]: > 100 µM
TGI [32]: > 100 µM
TGI [33]: > 100 µM
TGI [34]: > 100 µM
TGI [35]: > 100 µM
TGI [36]: > 82.9 µM
TGI [37]: > 100 µM
TGI [38]: > 100 µM
TGI [39]: > 100 µM
TGI [40]: > 100 µM
TGI [41]: > 100 µM
TGI [42]: > 100 µM
TGI [43]: > 100 µM
TGI [44]: > 100 µM
TGI [45]: > 100 µM
TGI [46]: > 100 µM
TGI [47]: > 100 µM
TGI [48]: > 100 µM
TGI [49]: > 100 µM
TGI [50]: > 100 µM
TGI [51]: 51.9 µM
TGI [52]: > 77.6 µM
TGI [53]: > 100 µM
TGI [54]: > 92.5 µM
TGI [55]: > 100 µM
TGI [56]: > 100 µM
TGI [57]: 64.4 µM

CCCOC(=O)N[C@H]1CCc2c(Br)c(OC)c(OC)c(OC)c2-c2ccc(SC)c(=O)cc21
GI50 [1]: < 0.01 µM
TGI [1]: > 40.5 µM
GI50 [2]: 0.0438 µM
TGI [2]: > 100 µM
GI50 [3]: 0.0305 µM
TGI [3]: 0.234 µM
GI50 [4]: 0.0359 µM
TGI [4]: 6.45 µM
GI50 [5]: 0.0245 µM
TGI [5]: > 100 µM
GI50 [6]: 0.158 µM
TGI [6]: > 100 µM
GI50 [7]: 0.0411 µM
TGI [7]: 6.28 µM
GI50 [8]: 0.0633 µM
TGI [8]: > 100 µM
GI50 [9]: 0.0321 µM
TGI [9]: 49.1 µM
GI50 [10]: 0.0345 µM
TGI [10]: > 57.4 µM
GI50 [11]: 0.0274 µM
TGI [11]: > 51.2 µM
GI50 [12]: 0.0431 µM
TGI [12]: 30.4 µM
GI50 [13]: 0.0339 µM
TGI [13]: 19.2 µM
GI50 [14]: < 0.01 µM
TGI [14]: > 100 µM
GI50 [15]: 0.0425 µM
TGI [15]: > 100 µM
GI50 [16]: 0.103 µM
TGI [16]: 21.9 µM
GI50 [17]: 0.0437 µM
TGI [17]: 17.3 µM
GI50 [18]: 0.0213 µM
TGI [18]: 0.0688 µM
GI50 [19]: 0.0248 µM
TGI [19]: 5.07 µM
GI50 [20]: 0.0252 µM
TGI [20]: 0.833 µM
GI50 [21]: 0.0726 µM
TGI [21]: 59.5 µM
GI50 [22]: 0.0262 µM
TGI [22]: 25.5 µM
GI50 [23]: 0.0474 µM
TGI [23]: > 100 µM
GI50 [24]: < 0.0119 µM
TGI [24]: 0.558 µM
GI50 [25]: < 0.01 µM
TGI [25]: 0.0189 µM
GI50 [26]: < 0.01 µM
TGI [26]: 12.2 µM
GI50 [27]: < 0.0135 µM
TGI [27]: 0.0509 µM
GI50 [28]: 0.0297 µM
TGI [28]: > 48 µM
GI50 [29]: 2.44 µM
TGI [29]: 37.1 µM
GI50 [30]: 0.0348 µM
TGI [30]: 27.2 µM
GI50 [31]: 2.83 µM
TGI [31]: 23.2 µM
GI50 [58]: 0.0306 µM
TGI [58]: 2.02 µM
GI50 [32]: 0.0197 µM
TGI [32]: > 100 µM
GI50 [33]: 0.0319 µM
TGI [33]: 10.4 µM
GI50 [34]: < 0.0145 µM
TGI [34]: 7.92 µM
GI50 [35]: 0.0501 µM
TGI [35]: 34.5 µM
GI50 [36]: 14.1 µM
TGI [36]: > 100 µM
GI50 [37]: 4.67 µM
TGI [37]: > 76.6 µM
GI50 [38]: 0.0218 µM
TGI [38]: > 36 µM
GI50 [39]: 0.0245 µM
TGI [39]: 0.0784 µM
GI50 [40]: 0.0377 µM
TGI [40]: > 46.2 µM
GI50 [41]: 5.02 µM
TGI [41]: 32.6 µM
GI50 [42]: 0.0395 µM
TGI [42]: > 68.4 µM
GI50 [43]: 0.0259 µM
TGI [43]: 10.4 µM
GI50 [44]: < 0.0177 µM
TGI [44]: 11.5 µM
GI50 [45]: 0.0382 µM
TGI [45]: > 100 µM
GI50 [47]: 0.0162 µM
TGI [47]: 0.0501 µM
GI50 [48]: 0.0348 µM
TGI [48]: > 57.3 µM
GI50 [49]: 0.0317 µM
TGI [49]: 4.26 µM
GI50 [50]: 0.0207 µM
TGI [50]: 3.67 µM
GI50 [51]: 0.0363 µM
TGI [51]: 15.1 µM
GI50 [52]: 0.0341 µM
TGI [52]: 6.71 µM
GI50 [53]: 0.0365 µM
TGI [53]: 13.2 µM
GI50 [54]: 0.0397 µM
TGI [54]: 24.8 µM
GI50 [55]: 0.0407 µM
TGI [55]: 11.4 µM
GI50 [56]: 0.0223 µM
TGI [56]: 6.39 µM
GI50 [57]: 0.0455 µM
TGI [57]: 17.8 µM
